The target in one data set is PRMT5⋅MTA (Homo sapiens (Human), UniProt O14744). Put plainly: PRMT5 MTA enzyme activity test (Alpha detection). The class given is biochemical. The settings on record: PRMT5/MEP50 1 nM with MTA 1 μM. As for the experimental part:
(§1) 1× test buffer (10 mM Tris, 1 mM DTT, 0.01% BSA, 0.01% Tween-20, adjusted to pH 8.0) was prepared. The test compound was dissolved in DMSO to prepare a 10 mM mother liquor, and the mother liquor was diluted to a 100-fold final concentration. 100 nL of the compound was added to each well of the administration group, and 100 nL of DMSO solution was added to blank wells and negative control wells. Then, 5 μL of a solution of PRMT5/MEP50 (BPS, Cat #31921) (final concentration: 1 nM) and MTA (final concentration: 1 μM) was added to the wells of the administration group and negative control wells, and 5 μL of 1× test buffer was added to the blank wells. Incubation was performed at room temperature for 15 minutes. […] 1× Epigenetics buffer (PerkinElmer, Cat #AL008F) was prepared and used for diluting acceptor microbeads and donor microbeads. 15 μL of acceptor microbeads (final concentration: 10 μg/mL; PerkinElmer, Cat #AL150C) and donor microbeads (final concentration: 10 μg/mL; PerkinElmer, Cat #AS106M) were added and incubated at room temperature for 1 hour in the dark. Then, detection was performed using the Alpha module of the reader Enspire microplate.
Based on the obtained data, the inhibition rate was calculated in Excel according to: inhibition rate (%)=(maximum value negative control−detection signal value)/(maximum value negative control−minimum value blank control)×100, and IC50 values were fitted by using XL-Fit.

The next data set has as its target PRMT5/MEP50 (Homo sapiens (Human), UniProt O14744). The data set is described as follows: PRMT5 enzyme activity test (Alpha detection). The class given is biochemical. The settings on record: PRMT5/MEP50 1 nM, absence of MTA. As for the experimental part:
as §1, with “a” for “a solution of”, “#31921) enzyme solution” for “#31921)”, “nM)” for “nM) and MTA (final concentration: 1 μM)”, “microplate. Based on the obtained data, the inhibition rate was calculated in Excel according to: inhibition rate (%)=(maximum value negative control−detection signal value)/(maximum value negative control−minimum value blank control)×100, and IC50 values were fitted by using XL-Fit.” for “microplate.”

For another data set, the system named is MIAPACA-2 cells. Put plainly: MIAPACA-2 cell proliferation inhibition experiment. Type of data set: cell-based. From the text: (§2) The chemiluminescence readings were detected by a microplate reader.
Another data set relates to HCT-116 cells. Put plainly: HCT-116 cell proliferation inhibition experiment. The class given is cell-based.
Source text: as §2

Data set [1] concerns SDMA production in HCT-116 cells. Put plainly: SDMA detection in HCT-116 cells. Type of data set: cell-based. The conditions noted are these: 3 days incubation.
Method: HCT-116 cells were cultured in an RPMI 1640 culture medium (ATCC, Cat #30-2001; supplemented with 10% FBS and 1% double antibody) until the confluence reached about 85%, and then the cells were plated. The culture medium was discarded, and the cells were rinse with 1×PBS and digested by trypsin (Gibco, Cat #15400-054). When the cells became round and began to fall off, the digestion was terminated by adding the culture medium. The cells were pipetted, transferred to a sterile centrifuge tube and centrifuged at 1000 rpm for 3 minutes, and after the centrifugation, the supernatant was discarded. The cells were resuspended by adding the culture medium to the centrifuge tube and then counted. According to the counting results, the cell suspension was adjusted to an appropriate concentration and poured into a loading slot. 100 μL of the cell suspension was added to each well of the 96-well plate. The compound was dissolved in DMSO to 10 mM and stored for later use. […] 100 μL of the Immobilon Forte Western HRP substrate (Millipore, Cat #WBLUF0500) was added to each well and incubated with shaking for 15 minutes, followed by chemiluminescence detection using the BMG microplate reader. After data normalization (SDMA reading/SMD3 reading), Graphpad Prism 8.3.0 software was used to plot the data, and the IC50 value was calculated.
Details of data set [2]: species or system beagle dogs. The settings on record: dog, in vivo. On the procedure: 10.1 Experimental animals: male beagle dogs, about 8-11 kg, 6 beagle dogs/compound, purchased from Beijing Marshall Biotechnology Co., Ltd.
10.2 Experimental method: On the day of the experiment, (6× number of test compounds (n)) beagle dogs were randomly divided into groups according to their body weights. The animals were fasted but with water available for 12 to 14 h one day before the administration and were fed 4 h after the administration. Administration was carried out according to Table 8.
Before and after the administration, 1 mL of blood was taken from the jugular veins or limb veins, and placed in an EDTAK2 centrifuge tube. Centrifugation was performed at 5000 rpm at 4° C. for 10 min, and the plasma was collected. The blood collection time points for the intravenous administration group and intragastric administration group were 0 min, 5 min, 15 min, 30 min, 1 h, 2 h, 4 h, 6 h, 8 h, 10 h, 12 h and 24 h. Before analysis and detection, all samples were stored at −80° C., and a quantitative analysis of samples was performed using LC-MS/MS.

For data set [3], the system named is SDMA production in HCT-116 MTAP−/− cells. The settings on record: read-out: HCT-116 MTAP−/− SDMA (IC50); 3 days incubation.
Method: HCT-116 MTAP−/− cells were cultured in an RPMI 1640 culture medium (ATCC, #30-2001; supplemented with 10% FBS and 1% double antibody) until the confluence reached about 85%, and then the cells were plated. The culture medium was discarded, and the cells were rinse with 1×PBS and digested by trypsin (Gibco, Cat #15400-054). When the cells became round and began to fall off, the digestion was terminated by adding the culture medium. The cells were pipetted, transferred to a sterile centrifuge tube and centrifuged at 1000 rpm for 3 minutes, and after the centrifugation, the supernatant was discarded. The cells were resuspended by adding the culture medium to the centrifuge tube and then counted. According to the counting results, the cell suspension was adjusted to an appropriate concentration and poured into a loading slot. 100 μL of the cell suspension was added to each well of the 96-well plate. The compound was dissolved in DMSO to 10 mM and stored for later use. […] 100 μL of the Immobilon Forte Western HRP substrate (Millipore, Cat #WBLUF0500) was added to each well and incubated with shaking for 15 minutes, followed by chemiluminescence detection using the BMG microplate reader. After data normalization (SDMA reading/SMD3 reading), Graphpad Prism 8.3.0 software was used to plot the data, and the IC50 value was calculated.
Where [4] appears, read: day 5, read-out: MIAPACA-2 (day 5 GI50).
Where [5] appears, read: day 10, read-out: MIAPACA-2 (day 10 GI50).
Setting [6] is: Homo sapiens, MIA PaCa-2, 120 h, read-out: MIAPACA-2 (day 5 GI50).

Read-outs that look alike come from different tables or passages of the source.

PRMT5⋅MTA, sequence (O14744 whole entry): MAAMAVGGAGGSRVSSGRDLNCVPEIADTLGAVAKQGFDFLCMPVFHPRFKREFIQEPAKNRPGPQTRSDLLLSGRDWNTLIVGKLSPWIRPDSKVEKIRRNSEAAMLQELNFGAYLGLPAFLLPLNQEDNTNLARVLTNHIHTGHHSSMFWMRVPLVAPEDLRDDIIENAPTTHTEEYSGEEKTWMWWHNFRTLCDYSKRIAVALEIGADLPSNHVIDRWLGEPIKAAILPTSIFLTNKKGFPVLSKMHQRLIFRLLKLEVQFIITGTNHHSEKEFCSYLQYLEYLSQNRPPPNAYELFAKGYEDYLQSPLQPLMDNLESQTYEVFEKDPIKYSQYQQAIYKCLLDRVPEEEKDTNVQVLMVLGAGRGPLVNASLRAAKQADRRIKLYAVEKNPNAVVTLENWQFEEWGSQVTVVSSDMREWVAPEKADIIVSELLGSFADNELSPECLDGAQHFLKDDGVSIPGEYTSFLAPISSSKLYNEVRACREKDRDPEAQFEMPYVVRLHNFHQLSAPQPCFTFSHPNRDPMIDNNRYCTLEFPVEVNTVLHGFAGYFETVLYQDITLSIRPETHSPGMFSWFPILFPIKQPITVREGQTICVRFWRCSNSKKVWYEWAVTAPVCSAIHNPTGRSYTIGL
PRMT5⋅MTA, sequence (Q9BQA1 whole entry partner): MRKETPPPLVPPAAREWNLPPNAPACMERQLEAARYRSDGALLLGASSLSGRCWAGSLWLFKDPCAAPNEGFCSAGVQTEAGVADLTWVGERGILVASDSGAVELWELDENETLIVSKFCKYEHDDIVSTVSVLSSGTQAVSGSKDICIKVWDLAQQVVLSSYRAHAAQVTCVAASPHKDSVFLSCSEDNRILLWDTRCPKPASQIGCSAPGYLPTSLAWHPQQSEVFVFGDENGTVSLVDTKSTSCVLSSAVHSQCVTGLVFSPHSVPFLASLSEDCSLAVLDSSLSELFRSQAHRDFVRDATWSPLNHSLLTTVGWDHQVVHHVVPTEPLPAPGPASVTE
PRMT5/MEP50, sequence (O14744 whole entry): as the sequence (O14744 whole entry) above
PRMT5/MEP50, sequence (Q9BQA1 whole entry partner): as the sequence (Q9BQA1 whole entry partner) above

In the case of `C=Cc1cc(-c2cnn(C)c2-c2c(F)c(Cl)cc(OC3(C)CC3)c2C#N)cc2c(CN)n[nH]c(=O)c12` [Compound 30, (2R)-2-(4-(4-(aminomethyl)-1-oxo-8-vinyl-1,2-dihydrophthalazin-6-yl)-1-methyl-1H-pyrazol-5-yl)-4-chloro-3-fluoro-6-(1-methylcyclopropoxy)benzonitrile], the IC50 is 0.8 nM at PRMT5⋅MTA (read-out: IC50 value for PRMT5⋅MTA); less than 1 nM at PRMT5⋅MTA (read-out: PRMT5•MTA); 1 to 10 nM at PRMT5/MEP50; 499 nM in data set [1]; 3.39 nM in data set [3]. In addition, the GI50 in the data set with MIAPACA-2 cells (setting [4]) was less than 50 nM; in the data set on MIAPACA-2 cells (setting [5]), less than 50 nM; in the data set with HCT-116 cells (day 5, read-out: HCT-116 (day 5 GI50)) it was more than 500 nM; in the data set with HCT-116 cells (day 10, read-out: HCT-116 (day 10 GI50)), more than 500 nM; with HCT-116 MTAP−/− cells (read-out: HCT-116 MTAP−/− (day 5 GI50), day 5) it was 38.2 nM; with HCT-116 MTAP−/− cells (read-out: HCT-116 MTAP−/− (day 10 GI50), day 10) it was 19.9 nM. In data set [2] (iv, 5 mg/kg), this molecule gave a CL of 0.313 mL/min/kg. For the same molecule, the AUC0-t in data set [2] (po, 10 mg/kg) was 178.458 µg·h/mL. Further, the T1/2 in data set [2] (po, 10 mg/kg) amounted to 16.1 h.
Turning to `Cn1ncc(-c2ccc3c(=O)[nH]c(CN)nc3c2)c1-c1c(F)c(Cl)cc(OC2(C)CC2)c1C#N` [Compound 14, (2S)-2-(4-(2-(aminomethyl)-4-oxo-3,4-dihydroquinazolin-7-yl)-1-methyl-1H-pyrazol-5-yl)-4-chloro-3-fluoro-6-(1-methylcyclopropoxy)benzonitrile], the GI50 in the data set on MIAPACA-2 cells (setting [4]) is less than 50 nM.
Turning to `Cn1ncc(-c2ccc3c(=O)[nH]c(CN)nc3c2)c1-c1c(F)c(Cl)cc(OC2CC2)c1C#N` [Compound 5, 2-(4-(2-(aminomethyl)-4-oxo-3,4-dihydroquinazolin-7-yl)-1-methyl-1H-pyrazol-5-yl)-4-chloro-6-cyclopropoxy-3-fluorobenzonitrile], the GI50 with MIAPACA-2 cells (setting [6]) was less than 50 nM; with MIAPACA-2 cells (Homo sapiens, MIA PaCa-2, 240 h, read-out: MIAPACA-2 (day 10 GI50)) it was less than 50 nM.
For `Cn1ncc(-c2cc(N3CCC3)c3c(=O)[nH]nc(CN)c3c2)c1-c1c(F)c(Cl)cc(OC2CC2)c1C#N` [Compound 22, 2-(4-(4-(aminomethyl)-8-(azetidin-1-yl)-1-oxo-1,2-dihydrophthalazin-6-yl)-1-methyl-1H-pyrazol-5-yl)-4-chloro-6-cyclopropoxy-3-fluorobenzonitrile], in the data set with MIAPACA-2 cells (setting [6]), the GI50 is less than 50 nM.
For `Cn1ncc(-c2ccc3c(=O)[nH]c(CN)nc3c2)c1-c1c(F)c(Cl)cc(OC2CC2)c1C#N` [Compound 11, (2S)-2-(4-(2-(aminomethyl)-4-oxo-3,4-dihydroquinazolin-7-yl)-1-methyl-1H-pyrazol-5-yl)-4-chloro-6-cyclopropoxy-3-fluorobenzonitrile], the GI50 in the data set with MIAPACA-2 cells (setting [4]) and with MIAPACA-2 cells (setting [5]) was less than 50 nM each time.
For the molecule `Cn1ncc(-c2ccc3c(=O)[nH]cc(CN)c3c2)c1-c1c(F)c(Cl)cc(OC2CC2)c1C#N` [Compound 1, 2-(4-(4-(aminomethyl)-1-oxo-1,2-dihydroisoquinolin-6-yl)-1-methyl-1H-pyrazol-5-yl)-4-chloro-6-cyclopropoxy-3-fluorobenzonitrile], the IC50 on PRMT5⋅MTA (read-out: PRMT5•MTA) fell in the range of 1 to 10 nM; against PRMT5/MEP50 it was 10 to 50 nM.

The values are drawn from patent publication US20260001868A1, “HETEROCYCLIC COMPOUND CAPABLE OF INHIBITING PRMT5-MTA AND USE THEREOF” (Xizang Haisco Pharmaceutical Co., Ltd., priority 2022, published 2026).
